According to patent publication US9044491B2, “Method for improving blood flow using stilbenoid derivatives” (The Board of Trustees of the University of Arkansas, priority 2010, dated 2015):

How the values were obtained:
[1] = test system: CLP or Control (Sham) mice; assay: Renal arterial blood flow by Doppler flow probe; assay type: in vivo, mouse
From the text: Under isoflurane anesthesia, the right kidney was exposed by flank incision and the renal artery and vein were carefully dissected from surrounding tissue with Dumont-5 forceps. The renal artery was isolated from the vein and a Transonic Systems (Ithaca, N.Y.) 0.5 PSL renal artery Doppler flow probe was positioned around the renal artery. The probe was calibrated in water using the zero and scale settings on the TS420 flowmeter (Transonic Systems). […] Body temperature was maintained at 36 to 37° C. with a heating lamp. Data were expressed in ml/min/g kidney weight.
Renal blood flow was measured essentially as described above in Example 10 following CPL surgery or control treatment (no surgery). CPL-treated mice were administered 10 mg/kg of resveratrol, 2.5 mg/kg of resveratrol-3-sulfate, or vehicle. […] In fact, resveratrol-3-sulfate produced the same degree of reversal at 25% of the dose of resveratrol.

[2] = test system: cecal ligation and puncture model (CLP) of sepsis-induced renal injury; assay: Renal microcirculation after CLP by intravital video microscopy; assay type: in vivo, mouse; settings: for capillary perfusion / RBC velocity / volumetric blood flow: 18 hours after CLP
Description: Control (sham) mice underwent surgery but not CLP. Fresh solutions of tRes were prepared in dimethyl sulfoxide as the vehicle (veh) and diluted in normal saline before use. Dextran and […] were administered to the penile vein to visualize the capillary vascular space and detect RNS generation, respectively. The left kidney was exposed by a flank incision and positioned on a glass stage with a fluorescent microscope equipped with an Axiocam HSm camera. Intravital Video Microscopy (IVVM) of 10 s intervals at 200× magnification were acquired from randomly selected, non-overlapping fields of view. Capillaries were randomly selected for the 10 sec videos and categorized as “continuous flow” where red blood cell (RBC) movement was continuous; “intermittent flow” where RBC movement stopped or reversed; or “no flow” where no RBC movement was detected as shown in FIG. 8. RBC velocity was calculated in continuously flowing capillaries by measuring the distance traveled by a single RBC over time, expressed in μm/s.

[3] = at 6 hours after CLP, administration at 5.5 hours

SMILES: Oc1ccc(/C=C/c2cc(O)cc(O)c2)cc1 [tRes, trans-resveratrol]
- Renal Arterial Blood Flow (RBF) ([1]; CLP mice at 6 hours, 10 mg/kg via the penile vein at 5.5 hours): 2.6 ± 0.6 mL/min/g
- renal blood flow ([1]; CPL-treated mice, 10 mg/kg (Example 15)): increased blood flow
- Renal Arterial Blood Flow (RBF) ([1]; Control (Sham) mice, 10 mg/kg): without effect
- capillary perfusion ([2]; 10 mg/kg at 6 hours and second dose at 12 hours): prevented the change
- RBC velocity ([2]; additional dose at 12 hours): complete restoration
- volumetric blood flow ([2]; additional dose at 12 hours): complete restoration
- RBC velocity ([2]; single dose): did not improve
- volumetric blood flow ([2]; single dose): did not improve
- capillary perfusion ([2]; single dose 10 mg/kg at 6 hours): unable to maintain perfusion
- mean RBC velocity ([2]; at 6 h after CLP): improved
- renal capillary volumetric blood flow ([2]; at 6 h after CLP): improved
- most efficacious dose for capillary perfusion [2, 3]: 10 mg/kg
- renal cortical peritubular capillary perfusion [2, 3]: improved perfusion in a dose dependent manner
